Measurements as given in BindingDB's records for doi:10.1021/acs.jmedchem.0c00774 (Istituto Italiano Di Tecnologia, 2020).

Target: Prostaglandin G/H synthase 1 (Homo sapiens, UniProt P23219)
Experiment: Inhibition of human COX1

Chain of Prostaglandin G/H synthase 1 (P23219 whole entry): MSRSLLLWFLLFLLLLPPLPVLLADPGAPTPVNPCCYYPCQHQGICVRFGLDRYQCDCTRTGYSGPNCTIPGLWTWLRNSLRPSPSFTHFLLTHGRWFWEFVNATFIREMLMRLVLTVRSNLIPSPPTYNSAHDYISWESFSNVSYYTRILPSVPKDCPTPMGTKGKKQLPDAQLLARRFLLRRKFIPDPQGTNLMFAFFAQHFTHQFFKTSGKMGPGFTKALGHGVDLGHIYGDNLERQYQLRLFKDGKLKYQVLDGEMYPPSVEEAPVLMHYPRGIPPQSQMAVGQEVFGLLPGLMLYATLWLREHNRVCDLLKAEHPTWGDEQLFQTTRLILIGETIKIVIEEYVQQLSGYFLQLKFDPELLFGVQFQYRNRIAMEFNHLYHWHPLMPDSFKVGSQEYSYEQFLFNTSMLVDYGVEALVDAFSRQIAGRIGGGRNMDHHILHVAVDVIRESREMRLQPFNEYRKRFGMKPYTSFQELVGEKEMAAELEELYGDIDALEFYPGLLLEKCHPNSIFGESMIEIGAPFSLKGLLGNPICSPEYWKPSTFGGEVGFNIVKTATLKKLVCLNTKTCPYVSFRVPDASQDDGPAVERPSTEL

CN(C)c1ccc(Nc2nc(-c3ccncc3)nc3c2CC(N)CC3)cc1 (stereo unspecified)
IC50: 4 µM
